From patent US11839651B2, “Immunogenic compositions and uses thereof” (INSTITUTE FOR RESEARCH IN BIO-MEDICINE, priority 2015, dated 2023)

System: Tfh cells (via P2X7)
Test: Epithelial permeability to ATP: Tfh cell recovery in Peyer's patches after daily gavage
Type: in vivo
Conditions: wild type mice, two weeks after treatment
Excerpt: In order to assess epithelial permeability to ATP in the small intestine, mice were gavaged daily with ATPγS (a non-hydrolysable analogue of ATP). As Tfh cells are sensitive to extracellular ATP via P2X7 the inventors analysed Tfh cell recovery in Peyer's patches two weeks after treatment.

Nc1ncnc2c1ncn2[C@@H]1O[C@H](COP(=O)(O)OP(=O)(O)OP(O)(O)=S)[C@@H](O)[C@H]1O [ATPγS]
Tfh cells in Peyer's patches: significant reduction
